Laboratory results published in ChEMBL document CHEMBL1201862, “PubChem BioAssay data set” (2004).
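These data come from cells grown in 96-well plates and exposed to compound for 48 hours at five concentrations. The concentration for 50% growth inhibition is given as GI50.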 Active and inactive are the calls of the source. No stated cut-off is given here; in the data, active = GI50 up to about 1.1 µM and inactive = higher.

What was measured:
Test in all cases: NCI-60 cell line screen, 48 h
786-0 = test system: 786-0
A549 = test system: A549
ACHN = test system: ACHN
COLO 205 = test system: COLO 205
DMS-273 = test system: DMS-273
HCT-116 = test system: HCT-116
KM12 = test system: KM12
Malme-3M = test system: Malme-3M
NCI-H226 = test system: NCI-H226
NCI-H23 = test system: NCI-H23
OVCAR-3 = test system: OVCAR-3
RPMI-8226 = test system: RPMI-8226
SK-MEL-28 = test system: SK-MEL-28
SNB-78 = test system: SNB-78
TK-10 = test system: TK-10
UO-31 = test system: UO-31

Measured: GI50

CCCCc1c2c(nc3c1CCCC3O)/C(=C/c1ccccc1)CCC2 (centres undefined)
inactive: 786-0 22.3 µM | A549 49.5 µM | ACHN 34.8 µM | COLO 205 17.9 µM | DMS-273 20.7 µM | HCT-116 36.6 µM | KM12 18.7 µM | Malme-3M 20.2 µM | NCI-H226 26.1 µM | NCI-H23 27.3 µM | OVCAR-3 18.7 µM | RPMI-8226 16.8 µM | SK-MEL-28 33.5 µM | SNB-78 56 µM | TK-10 26.9 µM | UO-31 42.9 µM

COC(=O)C1CCC(N2C(=O)CCC2C(=O)OC)=N1 (centres undefined)
inactive: 786-0 > 100 µM | A549 > 100 µM | ACHN > 100 µM | COLO 205 > 100 µM | DMS-273 > 100 µM | HCT-116 > 100 µM | KM12 > 100 µM | Malme-3M > 100 µM | NCI-H226 > 100 µM | NCI-H23 > 100 µM | OVCAR-3 > 100 µM | RPMI-8226 > 100 µM | SK-MEL-28 > 100 µM | SNB-78 > 100 µM | TK-10 > 100 µM | UO-31 > 100 µM

CCOC(=O)NC(=O)c1cn(CCCCCOC(=O)NCCCCCCNC(=O)OCCCCCn2cc(C(=O)NC(=O)OCC)c(=O)[nH]c2=O)c(=O)[nH]c1=O
inactive: 786-0 > 100 µM | A549 > 100 µM | ACHN > 100 µM | COLO 205 > 100 µM | DMS-273 > 100 µM | HCT-116 > 100 µM | KM12 > 100 µM | Malme-3M > 100 µM | NCI-H226 > 100 µM | OVCAR-3 > 100 µM | RPMI-8226 > 100 µM | SK-MEL-28 > 100 µM | SNB-78 > 100 µM | UO-31 > 100 µM

CC(=O)c1ccc(NC(=O)C(=O)CC(=O)c2sc(-n3nc(-c4ccccc4)cc3-c3ccccc3)nc2C)cc1
inactive: 786-0 > 100 µM | A549 > 100 µM | ACHN > 100 µM | COLO 205 > 100 µM | DMS-273 > 100 µM | HCT-116 > 100 µM | KM12 > 100 µM | Malme-3M > 100 µM | NCI-H226 > 100 µM | NCI-H23 > 100 µM | OVCAR-3 > 100 µM | RPMI-8226 > 100 µM | SNB-78 > 100 µM | TK-10 > 100 µM | UO-31 > 100 µM

CC1=C(/C=C/C(C)=C/C=C/C(C)=C/C=C/C=C(C)/C=C/C=C(C)/C=C/C=C(C)/C=C/C=C(\C)C(=O)O)C(C)(C)CCC1
inactive: 786-0 > 100 µM | A549 > 100 µM | ACHN > 100 µM | COLO 205 > 100 µM | DMS-273 > 100 µM | HCT-116 > 100 µM | KM12 > 100 µM | Malme-3M > 100 µM | NCI-H226 > 100 µM | NCI-H23 > 100 µM | OVCAR-3 > 100 µM | RPMI-8226 > 100 µM | SK-MEL-28 > 100 µM | SNB-78 > 100 µM | TK-10 > 100 µM | UO-31 > 100 µM

CC1(C)C2=CCCC(=O)[C@@]2(C)CC[C@@H]1O
inactive: 786-0 > 100 µM | A549 > 100 µM | ACHN > 100 µM | COLO 205 > 100 µM | DMS-273 > 100 µM | HCT-116 > 100 µM | KM12 > 100 µM | NCI-H226 > 100 µM | NCI-H23 > 100 µM | OVCAR-3 > 100 µM | RPMI-8226 > 100 µM | SK-MEL-28 > 100 µM | SNB-78 > 100 µM | TK-10 > 100 µM | UO-31 > 100 µM

Cc1cc2c(c(C(N)=O)c1C)-c1cccc(F)c1C2=O
inactive: 786-0 > 100 µM | A549 > 100 µM | ACHN > 100 µM | COLO 205 > 100 µM | DMS-273 > 100 µM | HCT-116 80.2 µM | KM12 > 100 µM | Malme-3M > 100 µM | NCI-H23 > 100 µM | OVCAR-3 > 100 µM | RPMI-8226 > 100 µM | SK-MEL-28 > 100 µM | SNB-78 > 100 µM | TK-10 > 100 µM | UO-31 40.9 µM

Cc1ccc(-c2cc(=O)c3cc(C)c(C)c(C(=O)O)c3o2)cc1C
inactive: 786-0 > 100 µM | A549 > 100 µM | ACHN > 100 µM | COLO 205 > 100 µM | DMS-273 > 100 µM | HCT-116 > 100 µM | KM12 > 100 µM | Malme-3M > 100 µM | NCI-H226 > 100 µM | NCI-H23 > 100 µM | OVCAR-3 > 100 µM | RPMI-8226 > 100 µM | SK-MEL-28 > 100 µM | SNB-78 > 100 µM | TK-10 > 100 µM | UO-31 > 100 µM

CC(C)(C)NNC(=O)/C(=C/c1ccc(Oc2ccc(Cl)c(Cl)c2)cc1)NC(=O)c1ccccc1
inactive: 786-0 59.6 µM | A549 > 100 µM | ACHN > 100 µM | COLO 205 16.2 µM | DMS-273 21.5 µM | HCT-116 > 100 µM | KM12 > 100 µM | Malme-3M > 100 µM | NCI-H226 > 100 µM | NCI-H23 > 100 µM | OVCAR-3 > 100 µM | RPMI-8226 22.1 µM | SK-MEL-28 > 100 µM | SNB-78 > 100 µM | TK-10 > 100 µM | UO-31 > 100 µM

O=C(N/N=C/c1ccccc1O)N/N=C/c1ccccc1O
inactive: 786-0 > 100 µM | A549 > 100 µM | ACHN > 100 µM | COLO 205 > 100 µM | DMS-273 > 100 µM | HCT-116 > 100 µM | Malme-3M > 100 µM | NCI-H226 > 100 µM | NCI-H23 > 100 µM | OVCAR-3 > 100 µM | RPMI-8226 > 100 µM | SK-MEL-28 > 100 µM | SNB-78 > 100 µM | TK-10 > 100 µM | UO-31 > 100 µM

COC1CCC2C(NS(=O)(=O)c3ccc(C)cc3)CCCC2O1.Cc1ccc(S(=O)(=O)NC(C)(C)C=O)cc1 (centres undefined)
inactive: 786-0 19.9 µM | A549 16.2 µM | ACHN 24.8 µM | DMS-273 8.41 µM | HCT-116 7.33 µM | KM12 12.4 µM | Malme-3M 23 µM | NCI-H226 10.3 µM | NCI-H23 11.1 µM | OVCAR-3 13 µM | RPMI-8226 6.21 µM | SK-MEL-28 30 µM | SNB-78 > 34.5 µM | TK-10 18.1 µM | UO-31 15 µM

O=C(NO)c1ccc(O)c(O)c1
inactive: 786-0 > 100 µM | A549 > 100 µM | ACHN > 100 µM | COLO 205 > 100 µM | DMS-273 27.8 µM | HCT-116 > 100 µM | KM12 > 100 µM | Malme-3M > 100 µM | NCI-H226 > 100 µM | NCI-H23 > 100 µM | OVCAR-3 > 100 µM | RPMI-8226 32.4 µM | SK-MEL-28 > 100 µM | SNB-78 > 100 µM | TK-10 98.6 µM | UO-31 > 100 µM

O=c1[nH]c2c(O)cccc2c2cc3c(c(O)c12)OCO3 [NARCIPRIMINE]
inactive: 786-0 25.5 µM | A549 25.5 µM | ACHN 15.8 µM | COLO 205 13.1 µM | DMS-273 18.7 µM | HCT-116 13.8 µM | KM12 16.7 µM | Malme-3M 22.8 µM | NCI-H226 17.4 µM | OVCAR-3 21.5 µM | RPMI-8226 25 µM | SNB-78 21.3 µM | TK-10 42.7 µM | UO-31 17.1 µM
